Reference: PubChem BioAssay (NCI)
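Compound exposure: 48 hours, 5 concentrations, 96-well plates. The concentration for full growth arrest is given as TGI.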

Legend:
Assay in all cases: growth of human tumour cells (NCI), 48 h
A549 NSCLC = tested on: A549 NSCLC
HCT-116 colon = tested on: HCT-116 colon
HT29 colon = tested on: HT29 colon
K-562 leukemia = tested on: K-562 leukemia
OVCAR-4 ovarian = tested on: OVCAR-4 ovarian
SK-MEL-5 melanoma = tested on: SK-MEL-5 melanoma
SW-620 colon = tested on: SW-620 colon
U251 CNS = tested on: U251 CNS
ACHN renal = tested on: ACHN renal
SK-MEL-2 melanoma = tested on: SK-MEL-2 melanoma

| SMILES | TGI (A549 NSCLC) | TGI (HCT-116 colon) | TGI (HT29 colon) | TGI (K-562 leukemia) | TGI (OVCAR-4 ovarian) | TGI (SK-MEL-5 melanoma) | TGI (SW-620 colon) | TGI (U251 CNS) | TGI (ACHN renal) | TGI (SK-MEL-2 melanoma) |
| --- | --- | --- | --- | --- | --- | --- | --- | --- | --- | --- |
| N#Cc1c(NC(=S)NC(=O)c2ccccc2)nc2c(c1-c1ccccc1)CCCC2 | > 100 µM | > 100 µM | > 100 µM | > 100 µM | > 100 µM | > 100 µM | > 100 µM | > 100 µM |  |  |
| C=C1C(=O)OC2C1CC(O)/C(C)=C\CCC1(C)OC21 (configuration not stated) | > 100 µM | > 100 µM | > 100 µM |  | > 100 µM | 47.5 µM | > 100 µM | 54.8 µM | > 100 µM | 44.5 µM |
| COc1ccc(-c2cc(N3CCN(c4ccccc4)CC3)c(C#N)c(=O)o2)cc1 | > 100 µM | > 100 µM | > 100 µM | > 100 µM | 15 µM | > 100 µM | > 100 µM | > 100 µM | > 100 µM | 53.6 µM |
| CCC(C)C(=O)c1c(O)c(C/C=C(\C)CCC=C(C)C)c(O)c2c(C(O)CC)cc(=O)oc12 (configuration not stated) | 11.4 µM | 2.21 µM | 3.62 µM | 3.31 µM | 10.5 µM | 2.74 µM | 14 µM | 9.67 µM | 8.38 µM | 3.83 µM |
| O=[N+]([O-])c1cn[n+]([O-])c2ccccc12 | 30.1 µM | 2.62 µM | 35.2 µM |  |  | 26.7 µM | 4.91 µM | 15 µM | 3.83 µM |  |
| CCO/N=[N+](\[O-])N(CC)CC | > 100 µM | > 100 µM | > 100 µM | > 100 µM |  | > 100 µM | > 100 µM |  | > 100 µM | > 100 µM |
| Cc1cn(Cc2ccccc2CCl)c(=O)[nH]c1=O | 36.6 µM | 17.9 µM | 79.7 µM | 56 µM | > 100 µM | 20.7 µM | 34.1 µM | 21.4 µM | 27.1 µM | 33.8 µM |
| COC(=O)/C=c1/c2ccccc2n2nc3ccccc3c12 | > 100 µM | > 100 µM | > 100 µM | > 100 µM | > 100 µM | > 100 µM | > 100 µM | > 100 µM | > 100 µM | > 100 µM |
